Paper PMC12583704 (Signal Transduction and Targeted Therapy, 2025)
Values joined by “and” are separate entries in the source; they are usually repeats but may differ in a detail not shown here. Equal values may be shown once.

Test: Phase 1 study NCT03594422: adverse events graded by NCI CTCAE v4.03
Format: in vivo, human
Description: Part 1 was a dose-escalation study to determine the recommended phase 2 dose (RP2D) in solid tumors. […] The initial design was a 3 + 3 dose escalation from 20 mg, but the protocol was amended to randomly enroll and assign patients to starting doses of 30, 40, and 50 mg on the basis of safety data acquired in the CML trial.[20] […] An interactive web response system was used for randomization. Part 2 was a nonrandomized study focusing on patients with SDH-deficient GISTs. […] On the basis of preliminary data from adult patients, adolescent patients with advanced wild-type GISTs were also included in Part 2. The dosage for adolescents was adjusted according to their body weights.
AEs were evaluated at each follow-up visit: on Days 1, 8, 15, and 22 during Cycles 1 and 2; and on Days 1 and 15 in Cycle 3 and all subsequent cycles, up to 30 days after the final dose. All AEs were graded according to the National Cancer Institute Common Terminology Criteria for Adverse Events v4.03. Clinical laboratory investigations for routine blood examinations and serum chemistry parameters were performed during every cycle (on Day 1), during Cycles 1 and 2 (on Days 8, 15, and 22), and 30 days after the last dose of treatment. Urinalysis, coagulation, cardiac troponin I/T, lipase, amylase, and electrocardiographic evaluations were conducted at baseline; during Cycles 1 and 2 (on Days 1 and 15); during Cycles 3, 5, 7, and 9; every three cycles after Cycle 9 (on Day 1); and 14 days after the last dose of treatment. All patients underwent tumor imaging for response assessment via computed tomography or magnetic resonance imaging at screening and every two cycles (8 weeks) until progression or discontinuation. Target and nontarget lesions were assessed per the Response Evaluation Criteria in Solid Tumors version 1.1 (RECIST v1.1).

Cc1ccc(C(=O)Nc2ccc(CN3CCN(C)CC3)c(C(F)(F)F)c2)cc1C#Cc1cnc2[nH]ncc2c1 [Olverembatinib, 3-[(1H-pyrazolo[3,4-b]pyridin-5-yl)ethynyl]-4-methyl-N-{4-[(4-methylpiperazin-1-yl)methyl]-3-(trifluoromethyl)phenyl]benzamide]
TRAE: Hypoalbuminemia (50 mg (n = 16), Grade 3-5): 0 n (%)
TRAE: Leukocyte count increased (50 mg (n = 16), Grade 3-5): 0 n (%)
TRAE: Melanocytic nevus (50 mg (n = 16), Grade 3-5): 0 n (%)
TRAE: Neutrophil count increased (50 mg (n = 16), Grade 3-5): 0 n (%)
TRAE: Platelet count increased (50 mg (n = 16), Grade 3-5): 0 n (%)
TRAE: Pyrexia (50 mg (n = 16), Grade 3-5): 0 n (%)
TEAE: Abdominal pain (Total (n = 66), Any grade): 15 (22.7) n (%)
TEAE: Alanine aminotransferase increased (Total (n = 66), Any grade): 25 [37.9%] n (%) and 25 (37.9) n (%)
TEAE: Anemia (Total (n = 66), Any grade): 31 [47.0%] n (%) and 31 (47.0) n (%)
TEAE: Aspartate aminotransferase increased (Total (n = 66), Any grade): 31 [47%] n (%) and 31 (47.0) n (%)
TEAE: C-reactive protein increased (Total (n = 66), Any grade): 15 (22.7) n (%)
TEAE: Constipation (Total (n = 66), Any grade): 27 [40.9%] n (%) and 27 (40.9) n (%)
TEAE: Fatigue (Total (n = 66), Any grade): 20 [30.3%] n (%) and 20 (30.3) n (%)
TEAE: Hyperuricemia (Total (n = 66), Any grade): 31 (47.0) n (%)
TEAE: Hypoalbuminemia (Total (n = 66), Any grade): 14 (21.2) n (%)
TEAE: Leukocyte count increased (Total (n = 66), Any grade): 32 [48.5%] n (%) and 32 (48.5) n (%)
TEAE: Melanocytic nevus (Total (n = 66), Any grade): 17 (25.8) n (%)
TEAE: Neutrophil count increased (Total (n = 66), Any grade): 25 [37.9%] n (%) and 25 (37.9) n (%)
TEAE: Pyrexia (Total (n = 66), Any grade): 28 [42.4%] n (%) and 28 (42.4) n (%)
TEAEs (Total (n = 66), Any grade): 66 (100.0%) n (%) and 66 (100.0) n (%)
TRAE: ALT increased (Total (n = 66), Any grade): 20 (30.3) n (%)
TRAE: AST increased (Total (n = 66), Any grade): 23 (34.8) n (%)
TRAE: Anemia (Total (n = 66), Any grade): 9 (13.6) n (%)
TRAE: Blood creatinine increased (Total (n = 66), Any grade): 9 (13.6) n (%)
TRAE: Constipation (Total (n = 66), Any grade): 23 (34.8) n (%)
TRAE: Fatigue (Total (n = 66), Any grade): 18 (27.3) n (%)
TRAE: Hypoalbuminemia (Total (n = 66), Any grade): 10 (15.2) n (%)
TRAE: Leukocyte count increased (Total (n = 66), Any grade): 27 (40.9) n (%)
TRAE: Melanocytic nevus (Total (n = 66), Any grade): 15 (22.7) n (%)
TRAE: Neutrophil count increased (Total (n = 66), Any grade): 22 (33.3) n (%)
TRAE: Platelet count increased (Total (n = 66), Any grade): 7 (10.6) n (%)
TRAE: Pyrexia (Total (n = 66), Any grade): 19 (28.8) n (%)
TEAE: Abdominal pain (Total (n = 66), Grade 3-5): 1 (1.5) n (%)
TEAE: Alanine aminotransferase increased (Total (n = 66), Grade 3-5): 2 (3.0) n (%)
TEAE: Anemia (Total (n = 66), Grade 3-5): 4 (6.1) n (%)
TEAE: Aspartate aminotransferase increased (Total (n = 66), Grade 3-5): 2 (3.0) n (%)
TEAE: C-reactive protein increased (Total (n = 66), Grade 3-5): 0 n (%)
TEAE: Constipation (Total (n = 66), Grade 3-5): 0 n (%)
TEAE: Fatigue (Total (n = 66), Grade 3-5): 1 (1.5) n (%)
TEAE: Hyperuricemia (Total (n = 66), Grade 3-5): 1 (1.5) n (%)
TEAE: Hypoalbuminemia (Total (n = 66), Grade 3-5): 0 n (%)
TEAE: Leukocyte count increased (Total (n = 66), Grade 3-5): 0 n (%)
TEAE: Melanocytic nevus (Total (n = 66), Grade 3-5): 0 n (%)
TEAE: Neutrophil count increased (Total (n = 66), Grade 3-5): 0 n (%)
TEAE: Pyrexia (Total (n = 66), Grade 3-5): 0 n (%)
TEAEs (Total (n = 66), Grade 3-5): 26 (39.4) n (%)
TRAE: ALT increased (Total (n = 66), Grade 3-5): 1 (1.5) n (%)
TRAE: AST increased (Total (n = 66), Grade 3-5): 1 (1.5) n (%)
TRAE: Anemia (Total (n = 66), Grade 3-5): 0 n (%)
TRAE: Blood creatinine increased (Total (n = 66), Grade 3-5): 0 n (%)
TRAE: Constipation (Total (n = 66), Grade 3-5): 0 n (%)
TRAE: Fatigue (Total (n = 66), Grade 3-5): 1 (1.5) n (%)
TRAE: Hypoalbuminemia (Total (n = 66), Grade 3-5): 0 n (%)
TRAE: Leukocyte count increased (Total (n = 66), Grade 3-5): 0 n (%)
TRAE: Melanocytic nevus (Total (n = 66), Grade 3-5): 0 n (%)
TRAE: Neutrophil count increased (Total (n = 66), Grade 3-5): 0 n (%)
TRAE: Platelet count increased (Total (n = 66), Grade 3-5): 0 n (%)
TRAE: Pyrexia (Total (n = 66), Grade 3-5): 0 n (%)
patients who experienced grade ≥3 TRAEs (all 66 patients): 13.6%
patients who experienced treatment-related AEs (TRAEs) (all 66 patients): 93.9%
treatment-related serious AEs (all 66 patients): 7.6%
Treatment-related SAE (all patients, Population, N 68): 5 (7.4) n (%)
Treatment-related SAE: Anemia (all patients, Population, N 68): 1 (1.5) n (%)
Treatment-related SAE: Arteriosclerosis coronary artery (all patients, Population, N 68): 1 (1.5) n (%)
Treatment-related SAE: Intestinal obstruction (all patients, Population, N 68): 2 (2.9) n (%)
Treatment-related SAE: Leukemoid reaction (all patients, Population, N 68): 1 (1.5) n (%)
RP2D (based on safety data from a previous phase 1 study and randomization in Part 1): 40 mg QOD
treatment discontinuation because of AEs (in vivo): no patients discontinued treatment because of AEs
